Experimental data published in ChEMBL document CHEMBL1201861, “Genomics of Drug Sensitity in Cancer screening data, Wellcome Trust Sanger Institute”.

Tests used:
Test in all cases: cells
Format in all cases: functional, cell-based, Homo sapiens
[1] = system: CP50-MEL-B; details: Homo sapiens, CP50-MEL-B;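 further: growth inhibition of the human cell line, measured with a cell viability read-out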
Description: SANGER: Inhibition of human CP50-MEL-B cell growth in a cell viability assay.

[2] = system: Ca9-22; details: Homo sapiens, Ca9-22;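 further: growth inhibition of Ca9-22 cells, read out with a cell viability assay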
Description: SANGER: Inhibition of human Ca9-22 cell growth in a cell viability assay.

[3] = system: CaR-1; details: Homo sapiens, CaR-1;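 further: growth inhibition of human CaR-1 cancer cells, read out with a cell viability assay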
Description: SANGER: Inhibition of human CaR-1 cell growth in a cell viability assay.

[4] = system: GMS-10; details: Homo sapiens, GMS-10;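 further: growth inhibition of GMS-10 cells, read out as cell viability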
Description: SANGER: Inhibition of human GMS-10 cell growth in a cell viability assay.

[5] = system: H4; details: Homo sapiens, H4
Description: SANGER: Inhibition of human H4 cell growth in a cell viability assay.

[6] = system: HCC38; details: Homo sapiens, HCC38;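 further: cell viability assay on the human HCC38 cell line, with IC50 marking the concentration that inhibits cell growth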
Description: SANGER: Inhibition of human HCC38 cell growth in a cell viability assay.

[7] = system: HEC-1; details: Homo sapiens, HEC-1;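 further: growth inhibition of the cell line, read out with a cell viability assay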
Description: SANGER: Inhibition of human HEC-1 cell growth in a cell viability assay.

[8] = system: HN; details: Homo sapiens, HN
Description: SANGER: Inhibition of human HN cell growth in a cell viability assay.

[9] = system: HTC-C3; details: Homo sapiens, HTC-C3;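 further: inhibition of cell growth, read out with a cell viability assay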
Description: SANGER: Inhibition of human HTC-C3 cell growth in a cell viability assay.

[10] = system: HuO-3N1; details: Homo sapiens, HuO-3N1;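 further: cell viability readout used to measure how strongly compounds suppress proliferation of human HuO-3N1 cells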
Description: SANGER: Inhibition of human HuO-3N1 cell growth in a cell viability assay.

[11] = system: IGROV-1; details: Homo sapiens, IGROV-1;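 further: reduction of IGROV-1 cell growth, read out with a viability assay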
Description: SANGER: Inhibition of human IGROV-1 cell growth in a cell viability assay.

[12] = system: KYSE-510; details: Homo sapiens, KYSE-510;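 further: cell viability readout used to measure how strongly growth of the cell line is suppressed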
Description: SANGER: Inhibition of human KYSE-510 cell growth in a cell viability assay.

[13] = system: LCLC-97TM1; details: Homo sapiens, LCLC-97TM1;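 further: cell viability assay measuring growth inhibition of human LCLC-97TM1 cells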
Description: SANGER: Inhibition of human LCLC-97TM1 cell growth in a cell viability assay.

[14] = system: LN-405; details: Homo sapiens, LN-405
Description: SANGER: Inhibition of human LN-405 cell growth in a cell viability assay.

[15] = system: LU-99A; details: Homo sapiens, LU-99A;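 further: growth inhibition of LU-99A cells, read out with a cell viability assay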
Description: SANGER: Inhibition of human LU-99A cell growth in a cell viability assay.

[16] = system: MKN-1; details: Homo sapiens, MKN-1;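 further: growth inhibition of human MKN1 cells, read out by a cell viability measurement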
Description: SANGER: Inhibition of human MKN1 cell growth in a cell viability assay.

[17] = system: NB14; details: Homo sapiens, NB14;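 further: growth inhibition of NB14 cells measured with a cell viability assay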
Description: SANGER: Inhibition of human NB14 cell growth in a cell viability assay.

[18] = system: NCI-H1623; details: Homo sapiens, NCI-H1623;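 further: cell viability assay used as the read-out for growth inhibition of NCI-H1623 cells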
Description: SANGER: Inhibition of human NCI-H1623 cell growth in a cell viability assay.

[19] = system: NCI-H1793; details: Homo sapiens, NCI-H1793;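 further: cell growth inhibition, read out by a cell viability assay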
Description: SANGER: Inhibition of human NCI-H1793 cell growth in a cell viability assay.

[20] = system: NCI-H1993; details: Homo sapiens, NCI-H1993;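 further: growth inhibition of the cancer cell line, assessed with a cell viability assay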
Description: SANGER: Inhibition of human NCI-H1993 cell growth in a cell viability assay.

[21] = system: NCI-H358; details: Homo sapiens, NCI-H358;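 further: growth inhibition of NCI-H358 human cells, read out with a cell viability assay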
Description: SANGER: Inhibition of human NCI-H358 cell growth in a cell viability assay.

[22] = system: NCI-H661; details: Homo sapiens, NCI-H661;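 further: cell viability assay read-out, IC50 being the concentration that inhibits growth of the cells by half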
Description: SANGER: Inhibition of human NCI-H661 cell growth in a cell viability assay.

[23] = system: PANC-03-27; details: Homo sapiens, PANC-03-27
Description: SANGER: Inhibition of human PANC-03-27 cell growth in a cell viability assay.

[24] = system: S-117; details: Homo sapiens, S-117
Description: SANGER: Inhibition of human S-117 cell growth in a cell viability assay.

[25] = system: SAS; details: Homo sapiens, SAS;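 further: growth inhibition of SAS cells, read out with a cell viability assay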
Description: SANGER: Inhibition of human SAS cell growth in a cell viability assay.

[26] = system: SW48; details: Homo sapiens, SW48;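 further: growth inhibition of SW48 cells, read out with a cell viability assay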
Description: SANGER: Inhibition of human SW48 cell growth in a cell viability assay.

[27] = system: SW756; details: Homo sapiens, SW756;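 further: growth inhibition of human SW756 cells, read out with a cell viability assay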
Description: SANGER: Inhibition of human SW756 cell growth in a cell viability assay.

[28] = system: SW780; details: Homo sapiens, SW780;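 further: growth inhibition of the cells, read out with a cell viability assay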
Description: SANGER: Inhibition of human SW780 cell growth in a cell viability assay.

[29] = system: T-24; details: Homo sapiens, T-24;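 further: growth inhibition of T-24 cells, read out with a cell viability assay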
Description: SANGER: Inhibition of human T-24 cell growth in a cell viability assay.

[30] = system: 639-V; details: Homo sapiens, 639-V;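 further: growth inhibition of 639-V cells, read out with a cell viability assay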
Description: SANGER: Inhibition of human 639-V cell growth in a cell viability assay.

[31] = system: BHT-101; details: Homo sapiens, BHT-101
Description: SANGER: Inhibition of human BHT-101 cell growth in a cell viability assay.

[32] = system: C3A; details: Homo sapiens, C3A;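 further: growth inhibition of C3A human cells, quantified with a cell viability readout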
Description: SANGER: Inhibition of human C3A cell growth in a cell viability assay.

[33] = system: CAL-39; details: Homo sapiens, CAL-39;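 further: cell viability assay measuring growth inhibition of CAL-39 cells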
Description: SANGER: Inhibition of human CAL-39 cell growth in a cell viability assay.

[34] = system: CAL-51; details: Homo sapiens, CAL-51;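 further: human CAL-51 cell line, growth inhibition read out via a cell viability assay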
Description: SANGER: Inhibition of human CAL-51 cell growth in a cell viability assay.

[35] = system: CAL-62; details: Homo sapiens, CAL-62;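 further: growth inhibition of CAL-62 cells, read out with a cell viability assay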
Description: SANGER: Inhibition of human CAL-62 cell growth in a cell viability assay.

[36] = system: UACC-62; details: Homo sapiens, UACC-62;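 further: growth inhibition of human UACC-62 cells, read out by a cell viability assay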
Description: SANGER: Inhibition of human UACC-62 cell growth in a cell viability assay.

[37] = system: VM-CUB-1; details: Homo sapiens, VM-CUB-1;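 further: cell viability assay measuring growth inhibition of the human VM-CUB-1 cell line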
Description: SANGER: Inhibition of human VM-CUB-1 cell growth in a cell viability assay.

[38] = system: ZR-75-30; details: Homo sapiens, ZR-75-30;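 further: growth inhibition of ZR-75-30 cells, measured with a cell viability readout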
Description: SANGER: Inhibition of human ZR-75-30 cell growth in a cell viability assay.

[39] = system: HCT-15; details: Homo sapiens, HCT-15;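 further: cell viability readout, IC50 reflecting suppression of HCT-15 cell growth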
Description: SANGER: Inhibition of human HCT-15 cell growth in a cell viability assay.

SMILES	IC50 [1] [µM]	IC50 [2] [µM]	IC50 [3] [µM]	IC50 [4] [µM]	IC50 [5] [µM]	IC50 [7] [µM]	IC50 [8] [µM]	IC50 [9] [µM]	IC50 [10] [µM]	IC50 [11] [µM]	IC50 [12] [µM]	IC50 [13] [µM]	IC50 [19] [µM]	IC50 [22] [µM]	IC50 [25] [µM]	IC50 [26] [µM]	IC50 [27] [µM]	IC50 [28] [µM]	IC50 [30] [µM]	IC50 [31] [µM]	also measured
COc1cc2c(Nc3ccc(NC(=O)c4ccccc4)cc3)ncnc2cc1OCCCN1CCOCC1	> 4	3.29	> 4	> 4	1.82	> 4	1.93	> 4	> 4	> 4	3.64	2.18	> 4	2.99	> 4	1.23	> 4	3.06	> 4	> 4	IC50 [6]: > 4 µM; IC50 [14]: > 4 µM; IC50 [15]: > 4 µM; IC50 [16]: > 4 µM; IC50 [17]: 1.56 µM; IC50 [18]: > 4 µM; IC50 [20]: > 4 µM; IC50 [21]: > 4 µM; IC50 [23]: > 4 µM; IC50 [24]: > 4 µM; IC50 [29]: > 4 µM; IC50 [32]: > 4 µM; IC50 [33]: > 4 µM; IC50 [34]: 1.84 µM; IC50 [35]: > 4 µM; IC50 [36]: > 4 µM; IC50 [37]: 2.63 µM; IC50 [38]: > 4 µM
CC(C)c1ccccc1Cc1cc(C(=O)Nc2ccc(S(=O)(=O)c3ccccc3C(C)(C)C)cc2)c(O)c(O)c1O	0.0696	0.00382	5.93	0.443	0.408	0.0814	0.231	1.58	2.03	0.454	0.222	0.917	0.745	0.202	0.0332	0.238	0.112	5.8	0.521	0.0218	IC50 [6]: 0.676 µM; IC50 [39]: 0.202 µM; IC50 [14]: 1.58 µM; IC50 [15]: 0.274 µM; IC50 [16]: 0.623 µM; IC50 [17]: 0.0764 µM; IC50 [18]: 0.595 µM; IC50 [20]: 1.04 µM; IC50 [21]: 1.49 µM; IC50 [23]: 0.474 µM; IC50 [24]: 0.213 µM; IC50 [29]: 0.295 µM; IC50 [32]: 1.82 µM; IC50 [33]: 0.341 µM; IC50 [34]: 0.349 µM; IC50 [35]: 0.308 µM; IC50 [36]: 0.0344 µM; IC50 [38]: 1.42 µM
CC(C)CCN1c2nc(Nc3cc(F)c(O)c(F)c3)ncc2N(C)C(=O)C1C (stereo not given)	> 5	2.66	> 5	3.09	2.48	> 5	1.61	> 5	> 5	> 5	4.26	2.6	> 5	> 5	> 5	3.43	> 5	> 5	2.72	4.11	IC50 [6]: > 5 µM; IC50 [39]: > 5 µM; IC50 [14]: > 5 µM; IC50 [15]: > 5 µM; IC50 [16]: 3.21 µM; IC50 [17]: 2.11 µM; IC50 [18]: > 5 µM; IC50 [20]: > 5 µM; IC50 [21]: > 5 µM; IC50 [23]: 4.3 µM; IC50 [24]: > 5 µM; IC50 [29]: > 5 µM; IC50 [32]: > 5 µM; IC50 [33]: 4.94 µM; IC50 [34]: 4.87 µM; IC50 [35]: 0.882 µM; IC50 [36]: > 5 µM; IC50 [37]: > 5 µM; IC50 [38]: > 5 µM
Nc1cccc2c1CN(C1CCC(=O)NC1=O)C2=O (stereo not given) [LENALIDOMIDE]	> 5	> 5	> 5	> 5	> 5	> 5	> 5	> 5	> 5	> 5	> 5	> 5	> 5	> 5	> 5	> 5	> 5	> 5	> 5	> 5	IC50 [6]: > 5 µM; IC50 [39]: > 5 µM; IC50 [14]: > 5 µM; IC50 [15]: > 5 µM; IC50 [16]: > 5 µM; IC50 [17]: > 5 µM; IC50 [18]: > 5 µM; IC50 [20]: > 5 µM; IC50 [21]: > 5 µM; IC50 [23]: > 5 µM; IC50 [24]: > 5 µM; IC50 [29]: > 5 µM; IC50 [32]: > 5 µM; IC50 [33]: > 5 µM; IC50 [34]: > 5 µM; IC50 [35]: > 5 µM; IC50 [36]: > 5 µM; IC50 [37]: > 5 µM; IC50 [38]: > 5 µM
CN(C)C(=N)NC(=N)N [METFORMIN]	> 20000	7950	> 20000	> 20000	> 20000	16200	> 20000	> 20000	7800	> 20000	> 20000	3170	18500	4560	11300	> 20000	> 20000	12400	> 20000	6420	IC50 [39]: 8890 µM; IC50 [32]: 11300 µM; IC50 [33]: > 20000 µM; IC50 [35]: > 20000 µM; IC50 [38]: 14900 µM
CC1(C)CNc2cc(NC(=O)c3cccnc3NCc3ccncc3)ccc21 [MOTESANIB]	> 2	> 2	> 2	> 2	> 2	> 2	> 2	> 2	> 2	> 2	> 2	> 2	> 2	> 2	> 2	> 2	> 2	> 2	> 2	> 2	IC50 [6]: > 2 µM; IC50 [14]: > 2 µM; IC50 [15]: > 2 µM; IC50 [16]: > 2 µM; IC50 [17]: > 2 µM; IC50 [18]: > 2 µM; IC50 [20]: > 2 µM; IC50 [21]: > 2 µM; IC50 [23]: > 2 µM; IC50 [24]: > 2 µM; IC50 [29]: > 2 µM; IC50 [32]: > 2 µM; IC50 [33]: > 2 µM; IC50 [34]: > 2 µM; IC50 [35]: > 2 µM; IC50 [36]: > 2 µM; IC50 [37]: > 2 µM; IC50 [38]: > 2 µM
CCN(CC)CCCCNc1ncc2cc(-c3cc(OC)cc(OC)c3)c(NC(=O)NC(C)(C)C)nc2n1 [PD-173074]	> 2	> 2	> 2	> 2	> 2	> 2	> 2	> 2	0.547	> 2	> 2	> 2	> 2	> 2	> 2	> 2	> 2	> 2	> 2	> 2	IC50 [6]: > 2 µM; IC50 [14]: > 2 µM; IC50 [15]: > 2 µM; IC50 [16]: > 2 µM; IC50 [17]: > 2 µM; IC50 [18]: > 2 µM; IC50 [20]: > 2 µM; IC50 [21]: > 2 µM; IC50 [23]: > 2 µM; IC50 [24]: > 2 µM; IC50 [29]: > 2 µM; IC50 [32]: > 2 µM; IC50 [33]: > 2 µM; IC50 [34]: > 2 µM; IC50 [35]: > 2 µM; IC50 [36]: > 2 µM; IC50 [37]: > 2 µM; IC50 [38]: > 2 µM
